From patent publication US6388109B1, “14,15-cyclopropano steroids of the 19-norandrostane series, method for the production thereof and pharmaceutical preparations containing said compounds” (Jenapharm GmbH & Co. KG, priority 1998, dated 2002)

Assays:
[1] = target: T1, androgen receptor of the rat prostate (Rattus norvegicus, UniProt P15207); experiment: binding to the androgen receptor of the rat prostate (reference substance: R 1881)
T1 construct: androgen receptor of the rat prostate; from tissue; host or cells: rat prostate
T1 sequence (P15207 1-902): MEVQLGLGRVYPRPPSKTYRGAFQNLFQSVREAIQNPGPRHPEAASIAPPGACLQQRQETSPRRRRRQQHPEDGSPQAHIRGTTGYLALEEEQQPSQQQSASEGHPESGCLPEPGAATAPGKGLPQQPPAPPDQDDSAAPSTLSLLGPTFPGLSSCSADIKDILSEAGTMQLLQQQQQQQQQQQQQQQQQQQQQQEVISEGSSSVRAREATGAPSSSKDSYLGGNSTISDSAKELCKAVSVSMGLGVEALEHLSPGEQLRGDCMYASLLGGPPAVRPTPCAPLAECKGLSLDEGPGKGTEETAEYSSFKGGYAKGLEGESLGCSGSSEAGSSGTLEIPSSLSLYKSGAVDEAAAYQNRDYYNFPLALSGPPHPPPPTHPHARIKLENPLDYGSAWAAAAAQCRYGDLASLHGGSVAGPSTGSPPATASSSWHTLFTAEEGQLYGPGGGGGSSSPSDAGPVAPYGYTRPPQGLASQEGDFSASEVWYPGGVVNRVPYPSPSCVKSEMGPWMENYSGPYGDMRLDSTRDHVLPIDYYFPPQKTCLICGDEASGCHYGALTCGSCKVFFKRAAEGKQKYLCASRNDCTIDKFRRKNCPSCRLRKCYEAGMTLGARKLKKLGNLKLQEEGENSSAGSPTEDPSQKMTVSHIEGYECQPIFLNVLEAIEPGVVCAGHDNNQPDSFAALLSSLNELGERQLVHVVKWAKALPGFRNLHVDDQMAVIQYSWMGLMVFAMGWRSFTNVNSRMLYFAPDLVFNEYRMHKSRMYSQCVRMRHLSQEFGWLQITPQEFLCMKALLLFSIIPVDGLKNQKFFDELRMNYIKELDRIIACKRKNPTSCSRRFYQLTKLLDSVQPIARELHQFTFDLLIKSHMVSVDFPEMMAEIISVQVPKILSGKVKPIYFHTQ

[2] = target: T2, progesterone receptor of the rabbit uterus (Oryctolagus cuniculus, UniProt P06186); experiment: binding to the progesterone receptor of the rabbit uterus (reference substance: progesterone)
T2 construct: progesterone receptor of the rabbit uterus; from tissue; host or cells: rabbit uterus
T2 sequence (P06186 1-930): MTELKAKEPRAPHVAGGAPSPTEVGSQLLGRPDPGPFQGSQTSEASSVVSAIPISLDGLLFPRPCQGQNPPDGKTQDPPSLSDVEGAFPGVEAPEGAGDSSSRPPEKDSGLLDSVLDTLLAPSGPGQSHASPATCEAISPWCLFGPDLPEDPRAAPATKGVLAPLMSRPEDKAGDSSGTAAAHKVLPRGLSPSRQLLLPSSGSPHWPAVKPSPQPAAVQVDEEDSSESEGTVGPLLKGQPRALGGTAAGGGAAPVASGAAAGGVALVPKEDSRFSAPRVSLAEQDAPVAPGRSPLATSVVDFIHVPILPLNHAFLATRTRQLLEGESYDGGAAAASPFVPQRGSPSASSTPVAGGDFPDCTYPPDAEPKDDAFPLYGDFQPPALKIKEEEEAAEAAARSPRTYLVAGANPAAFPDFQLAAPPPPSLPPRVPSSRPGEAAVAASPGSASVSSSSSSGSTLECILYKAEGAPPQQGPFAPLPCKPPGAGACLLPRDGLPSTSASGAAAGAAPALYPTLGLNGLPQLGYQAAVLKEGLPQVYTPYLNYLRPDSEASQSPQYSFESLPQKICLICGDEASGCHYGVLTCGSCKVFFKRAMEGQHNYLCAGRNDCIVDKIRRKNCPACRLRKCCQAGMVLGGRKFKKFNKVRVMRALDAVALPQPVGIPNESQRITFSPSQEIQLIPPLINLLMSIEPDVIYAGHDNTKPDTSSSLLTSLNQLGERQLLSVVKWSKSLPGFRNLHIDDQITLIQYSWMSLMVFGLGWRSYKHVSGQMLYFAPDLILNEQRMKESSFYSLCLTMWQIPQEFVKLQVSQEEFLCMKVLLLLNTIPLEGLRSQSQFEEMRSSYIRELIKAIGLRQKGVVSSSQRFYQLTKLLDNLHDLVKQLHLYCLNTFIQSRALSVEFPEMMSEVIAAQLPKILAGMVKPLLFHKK
Excerpt: Another example is the compound of general formula I—in which R1 and R2 in each case represent a hydrogen atom, R3 means an α-position chloromethyl group, R4 stands for a β-position hydroxy group, and the cyclopropane ring is in β-position—17α-chloromethyl-17β-hydroxy-14β,15β-methylenestr-4-en-3-one (Code J 1364), which binds with 710±80% to the progesterone receptor of the rabbit uterus (reference substance: progesterone).

[3] = test system: pregnancy maintenance (gestagenic action); experiment: pregnancy maintenance test in mice; type: in vivo
Excerpt: Another example is the compound of general formula I—in which R1 and R2 in each case represent a hydrogen atom, R3 represents an α-position hydrogen atom, R4 stands for a β-position hydroxy group, and the cyclopropane ring is in α-position—17β-hydroxy-14,α,15α-methylenestr-4-en-3-one (J 1129), which in the same test has an approximately 50-fold stronger gestagenic action in comparison to the reference substance norethisterone acetate.

SMILES | binding to the androgen receptor ([1]; reference substance: 17β-hydroxy-17α-methyl-estra-4,9,11-trien-3-one (R 1881)) | binding to the progesterone receptor [2] | gestagenic action in comparison to the reference substance norethisterone acetate ([3]; pregnancy maintenance test, stronger than norethisterone acetate) | affinity to the androgen receptor (in words) ([1]; reference substance: R 1881) | effectiveness in the pregnancy maintenance test compared with norethisterone acetate ([3]; reference gestagen norethisterone acetate)
C[C@]12CC[C@H]3[C@@H](CCC4=CC(=O)CC[C@@H]43)[C@@]13C[C@H]3C[C@@H]2O [J 1129, 17β-Hydroxy-14α,15α-methylenestr-4-en-3-one] | 59±7% | 42±5% | approximately 50 fold |  | 
COC[C@]1(O)C[C@H]2C[C@]23[C@@H]2CCC4=CC(=O)CC[C@@H]4[C@H]2CC[C@]13C [J 1222, 17β-Hydroxy-17α-(methoxymethyl)-14β,15β-methylenestr-4-en-3-one] |  | 52±4% |  | virtually no affinity | just as effective
CC12CCC3C4CCC(=O)C=C4CCC3C13CC3CC2(O)CCl (stereo not drawn) [J 1364, 17α-Chloromethyl-17β-hydroxy-14β,15β-methylenestr-4-en-3-one] |  | 710±80% |  |  | 
